The values that follow come from patent US10537525B2, “Methods and materials for delivering agents to liver tissue” (Mayo Foundation for Medical Education and Research, priority 2015, dated 2020).

Data set [1] is described as follows: Endoscopic ultrasound-guided portal vein injection of irinotecan loaded microbeads vs jugular vein irinotecan: plasma and tissue concentrations (LC/MS). The class given is in vivo, pigs. The following applies: control: unloaded irinotecan 100 mg into jugular vein; for concentration at 1 h: pig, intravenous. The method, then: Irinotecan and SN-38 (active metabolite) concentrations were determined using LC/MS.

The conditions of data set [2]: control: unloaded doxorubicin 100 mg into jugular vein; plasma every 15 min for one hour.
Protocol: (§1) The following was performed to assess the use of endoscopic ultrasound-guided portal vein injection of doxorubicin loaded microbeads to achieve increased intrahepatic concentrations of doxorubicin while decreasing systemic doxorubicin exposure.
(§2) Endoscopic ultrasound-guided portal vein injections were administered to 8 anesthetized 35 kg pigs transgastrically using a linear array echoendoscope and a 22 gauge fine-needle aspiration needle. Briefly, an Olympus linear array echoendoscope was inserted perorally to the stomach. The portal vein was identified by location, appearance, and pulse-wave Dopper signature. A 22 gauge fine-needle aspiration needle (Cook Medical) was advanced transgastrically into the portal vein.
(§3) In 4 animals, doxorubicin (100 mg) loaded onto 75-150 micron LC Beads® (Biocompatibles UK LTD) was injected. In 4 animals, saline was injected into the portal vein, and unloaded doxorubicin (100 mg) was injected into the jugular vein. Plasma was collected at baseline and every 15 minutes for one hour. At 1 hour, laparotomy was performed, and liver and heart samples were obtained and frozen. Bone marrow aspirates were obtained at one hour from the right anterior tibia. Doxorubicin concentrations were determined using LC/MS.
A short description of data set [3]: in vivo. The following applies: pig, intravenous, 100 mg.
Protocol: as §1, §2, §3
Data set [4] in a line: in vivo. The following applies: male, pig, intravenous, 50 mg.
Protocol: The aim was to determine 7-day safety, toxicity, and drug levels in the survival porcine model of endoscopic ultrasound-guided injections using irinotecan and doxorubicin loaded onto microbeads, as compared with systemic injection.
Sixteen anesthetized 35 kg male pigs were treated with 50 mg of either irinotecan (n=8) or doxorubicin (n=8). […] Within each drug group, half (n=4) were treated with endoscopic ultrasound-guided injections using 75-150 micron LC Beads (Biocompatibles) or endoscopic ultrasound-guided injection of drug not loaded onto microbeads into the IVC, using 22g endoscopic ultrasound needles via a transgastric approach. Each animal received only one drug by one route. Animals were observed twice daily for 7 days for clinical signs of toxicity. Whole blood for cell counts and plasma chemistries were obtained at baseline and at 7 days. […] 7 day drug levels were measured by LC-mass spectometry on plasma, bone marrow, liver and heart.
[5] abbreviates: 50 mg, either group (microbeads portal vein or unloaded drug into IVC).

In the case of `CCc1c2c(nc3ccc(OC(=O)N4CCC(N5CCCCC5)CC4)cc13)-c1cc3c(c(=O)n1C2)COC(=O)[C@]3(O)CC` [Irinotecan, (S)-4,11-diethyl-3,4,12,14-tetrahydro-4-hydroxy-3,14-dioxo1H-pyrano[3′,4′:6,7]-indolizino[1,2-b]quinolin-9-yl-[1,4′bipiperidine]-1′-carboxylate], the “Irinotecan level, Peak Plasma” value in data set [1] (plasma every 15 min for one hour) is on record as 2762 ng/mL. For the same compound, the concentration at 1 h in data set [1] (bone marrow, at one hour, read-out: Irinotecan level, Bone Marrow) came to 1700 ng/mL; in data set [1] (skeletal muscle at 1 hour, read-out: Irinotecan level, Muscle), 1060 ng/g; in data set [1] (liver, at 1 hour, read-out: Irinotecan level, Liver), 3690 ng/g. In addition, where the note is “50 mg, any samples (plasma, bone marrow, liver, heart), microbeads portal vein or unloaded drug into IVC”, the “irinotecan level at 7 days” value is listed as “no detectable”. Moreover, the “SN-38 (active metabolite of irinotecan) level at 7 days” value (irinotecan 50 mg, any samples (plasma, bone marrow, liver, heart), microbeads portal vein or unloaded drug into IVC) is reported as “no detectable”.

As for `COc1cccc2c1C(=O)c1c(O)c3c(c(O)c1C2=O)C[C@@](O)(C(=O)CO)C[C@@H]3O[C@H]1C[C@H](N)[C@H](O)[C@H](C)O1` [doxorubicin, (7S,9S)-7-[(2R,4S,5S,6S)-4-amino-5-hydroxy-6-methyloxan-2-yl]oxy-6,9,11-trihydroxy-9-(2-hydroxyacetyl)-4-methoxy-8,10-dihydro-7H-tetracene-5,12-dione], in data set [2], the “Doxorubicin level, Peak Plasma” value turned out to be 2041 ng/mL. The “doxorubicin level in bone marrow at 7 days” value under setting [5] is listed as “no drug was detected”. Besides, under setting [5], the “doxorubicin level in plasma at 7 days” value is listed as “no drug was detected”. For the same compound, the values for the concentration at 1 h in “in vivo [3]” (bone marrow), in the data set “in vivo [3]” (heart) and in “in vivo [3]” (liver) were 25 ng/mL, 4800 ng/g and 6930 ng/g, respectively. The concentration at 7 days in the data set “in vivo [4]” (heart) amounted to 138 ng/g; in the data set “in vivo [4]” (liver) it was 151 ng/g.
